Values after ≈ are worked out from the molar mass of the structure shown. Active and inactive are the calls of the source. No cut-off for these calls is given here.
Experiments:
Plasmodium falciparum = assay: Antimalarial activity against Plasmodium falciparum D6; assay type: functional, organism-based
[1] = biological target: T1, Mycobacterial beta-ketoacyl-[acyl-carrier-protein] synthase III (Mycobacterium tuberculosis) (UniProt P9WNG3); assay: Inhibition of Mycobacterium tuberculosis FabH at 100 uM
T1 sequence (whole entry): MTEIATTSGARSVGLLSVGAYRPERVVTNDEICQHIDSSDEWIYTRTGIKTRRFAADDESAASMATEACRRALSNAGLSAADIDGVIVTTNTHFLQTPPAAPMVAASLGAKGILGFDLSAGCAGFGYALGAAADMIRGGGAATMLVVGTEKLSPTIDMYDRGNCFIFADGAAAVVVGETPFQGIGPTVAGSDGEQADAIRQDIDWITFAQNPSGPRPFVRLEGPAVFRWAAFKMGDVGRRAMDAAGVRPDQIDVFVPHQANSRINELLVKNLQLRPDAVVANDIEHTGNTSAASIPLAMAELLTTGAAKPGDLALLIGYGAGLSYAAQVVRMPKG

[2] = biological target: T2, Beta-ketoacyl-ACP-synthase III (Plasmodium falciparum) (UniProt O77078); assay: Inhibition of Plasmodium falciparum D6 KASIII at 100 uM
T2 sequence (whole entry): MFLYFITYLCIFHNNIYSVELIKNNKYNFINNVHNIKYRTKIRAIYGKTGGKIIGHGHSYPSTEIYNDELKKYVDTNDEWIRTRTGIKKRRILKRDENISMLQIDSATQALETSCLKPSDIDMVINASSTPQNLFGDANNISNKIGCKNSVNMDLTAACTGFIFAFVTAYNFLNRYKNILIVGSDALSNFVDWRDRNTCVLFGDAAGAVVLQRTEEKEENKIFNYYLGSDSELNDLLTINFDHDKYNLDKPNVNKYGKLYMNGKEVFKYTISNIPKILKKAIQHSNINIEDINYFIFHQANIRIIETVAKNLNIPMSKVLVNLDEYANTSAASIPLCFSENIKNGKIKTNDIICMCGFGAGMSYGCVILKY

[3] = biological target: T3, 3-oxoacyl-[acyl-carrier-protein] synthase 3 (Escherichia coli, UniProt C3TDZ2); assay: Inhibition of Escherichia coli FabH
T3 sequence (C3TDZ2 whole entry): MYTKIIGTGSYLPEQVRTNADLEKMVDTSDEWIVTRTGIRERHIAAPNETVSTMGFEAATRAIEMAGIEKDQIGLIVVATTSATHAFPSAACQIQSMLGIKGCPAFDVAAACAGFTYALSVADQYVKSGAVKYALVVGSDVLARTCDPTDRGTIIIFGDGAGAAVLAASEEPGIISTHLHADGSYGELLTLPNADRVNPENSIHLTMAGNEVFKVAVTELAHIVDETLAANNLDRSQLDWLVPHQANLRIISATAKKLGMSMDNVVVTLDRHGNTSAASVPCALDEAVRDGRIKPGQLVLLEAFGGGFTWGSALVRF

Escherichia coli [4] = assay: Antibacterial activity against Escherichia coli; assay type: functional
Escherichia coli [5] = assay: Antibacterial activity against Escherichia coli expressing FabH; assay type: functional

| Structure (SMILES) | IC50 (Plasmodium falciparum) | Activity [1] | Activity [2] | IC50 [3] | MIC (Escherichia coli [4]) | MIC (Escherichia coli [5]) |
| --- | --- | --- | --- | --- | --- | --- |
| S=C1SCCN1Cc1ccc(Oc2ccc(C3CCCC3)cc2)cc1 | 5.3 µM | inactive | inactive | 17.7 µM |  |  |
| S=C1SCCN1Cc1ccc(Oc2ccccc2)cc1 | 55.6 µM | inactive | inactive | > 100 µM |  |  |
| O=C1N(Cc2ccccc2)CCS1(=O)=O | 67.6 µM | inactive | inactive | 1.1 µM | 6.6 µg/mL (≈ 29.3 µM) | 6.6 µg/mL (≈ 29.3 µM) |
| CN1CCSC1=S | > 100 µM | inactive | inactive | > 100 µM |  |  |
| S=C1SCCN1Cc1ccccc1 | 61.6 µM | inactive | inactive | > 100 µM |  |  |
| S=C1SCCN1Cc1cccnc1 | 73.4 µM | inactive | inactive | > 100 µM |  |  |
| O=C1SCCN1Cc1ccc(Oc2ccc(C3CCCC3)cc2)cc1 | 11.1 µM | inactive | inactive | 14.4 µM |  |  |
| CN1CCS(=O)(=O)C1=O | > 100 µM | inactive | inactive | > 100 µM |  |  |
| O=C1SCCN1Cc1cccnc1 | 78.4 µM | inactive | inactive | 20.7 µM |  |  |
| O=C1N(Cc2ccc(Oc3ccc(C4CCCC4)cc3)cc2)CCS1(=O)=O | 10.8 µM | inactive | inactive | 2.4 µM |  |  |
| S=C1SCCN1CCc1ccccc1 | 55.5 µM | inactive | inactive | > 100 µM |  |  |
| O=C1N(CCc2ccccc2)CCS1(=O)=O | 21.6 µM | inactive | inactive | 1.9 µM | 16.5 µg/mL (≈ 69 µM) |  |
| CCCN1CCS(=O)(=O)C1=O | > 100 µM | inactive | inactive | > 100 µM |  |  |
| O=C1SCCN1Cc1ccc(Oc2ccccc2)cc1 | 67.1 µM | inactive | inactive | 10.9 µM |  |  |
| O=C1N(Cc2ccc(Oc3ccccc3)cc2)CCS1(=O)=O | 49.4 µM | inactive | inactive | 0.9 µM |  |  |
| CCCN1CCSC1=S | > 100 µM | inactive | inactive | > 100 µM |  |  |
| O=C1SCCN1Cc1ccccc1 | 90.9 µM | inactive | inactive | 13.7 µM |  |  |

Source: ChEMBL document CHEMBL1146351, “Synthesis and biological evaluation of thiazolidine-2-one 1,1-dioxide as inhibitors of Escherichia coli beta-ketoacyl-ACP-synthase III (FabH)” (Bioorg Med Chem Lett, 2007)
